{
  "source": "patent US20100069382A1",
  "about": "“Agent for prophylaxis or treatment of alcohol dependence or drug dependence” (priority 2006, published 2010)",
  "key": {"[1]": {"settings": "existing medicines, known profile, cited from earlier work"}, "Wistar rats": {"tested_on": "Wistar rats", "experiment": "Effect on alcohol withdrawal symptoms in Wistar rats", "assay_type": "in vivo, rat", "procedure": "Male Wistar rats were used in this study. According to the protocol shown in FIG. 1, rats were orally given 12-15 g/kg/body weight of ethanol in 24 hours on day 1 to day 2 and 9-10 g/kg/body weight of ethanol in 12 hours on day 3 to day 5. Compound A was administered p.o. at doses of 0.3 and 1 mg/kg/body weight twice after 2 and 7 hours of last ethanol administration. Four types of alcohol withdrawal symptoms such as vocalization, ventromedial limb retraction, tail rigidity, tail tremors were observed and scored with following 3 rating scales: mild=0, moderate=1, severe=2."}, "msP rats [2]": {"tested_on": "msP rats", "experiment": "Effect on alcohol intake in msP rats", "assay_type": "in vivo, rat", "procedure": "Male genetically selected alcohol-preferring rats known as Marchigian Sardinian alcohol-preferring (msP) rats were used in this study (Addiction Biol. 11, 339-355, 2006). […] Compound A at doses of 0.3 and 1 mg/kg/body weight was orally administered twice for 9 days at 1 hour before and 8 hours after onset of dark period."}, "msP rats [3]": {"tested_on": "msP rats", "experiment": "Yohimbine-induced reinstatement of alcohol-seeking behavior in msP rats", "assay_type": "in vivo, rat", "from_the_text": "Male genetically selected alcohol-preferring rats known as msP rats were used in this study (Addiction Biol. 11, 339-355, 2006). […] After acquisition of a stable baseline of 10% ethanol self-administration, rats were subjected to 30-min extinction sessions for 15 consecutive days. Extinction sessions were identical to 10% ethanol self-administration sessions, however alcohol was no longer available. Beginning on extinction day 10, rats were divided into three groups with similar baseline levels of responding for 10% ethanol. For six consecutive days, 1 hour before the self-administration session and 8 hours later, each group of rats were orally given vehicle, 0.3 mg/kg of Compound A or 1.0 mg/kg of Compound A. After the extinction sessions, rats were given yohimbine (1,25 mg/kg, i.p.) 35 min before the test sessions. The 30-min reinstatement test was conducted under extinction condition.\nYohimbine was used as stressor for this study, because yohimbine is known to produce stress and anxiety-like states in both humans and non-humans (Bremner et al, 1996; Charney et al 1983; Holmberg et al 1963)."}, "msP rats [4]": {"tested_on": "msP rats", "experiment": "Study on dependence elicitation (conditioned place preference) in msP rats", "assay_type": "in vivo, rat", "procedure": "A two-compartment box divided by guillotine door was used. […] For the following 6 days, the rats were treated on alternate days with three Compound A-pairing administrations (0.3 and 1.0 mg/kg/body weight, p.o.) and three vehicle-pairing administrations immediately before being placed, for 1 hour, into the assigned chamber with guillotine door close for drug-compartment discrimination (conditioning). The day after the last conditioning session, the rats were placed, for 15 min, in the box with door open. The time spent in the drug paired compartment was measured."}, "[5]": {"settings": "Economidou et al., Peptides 27, 3299-3306, 2006, cited from earlier work"}, "[6]": {"settings": "0.3 and 1 mg/kg/body weight p.o. twice, 2 and 7 hours after last ethanol, observed 8 to 24 hours after last ethanol administration, FIG. 2"}},
  "note": "Like-named read-outs stand apart in the source and are kept apart here.",
  "data": [
    {"smiles": "CC(=O)NCCCS(=O)(=O)O", "note": "[Acamprosate]", "values": [
      {"measurement": "Ameliorative effect on alcohol withdrawal symptoms", "setting": "[1]", "value": "none"},
      {"measurement": "Presence/absence of dependence", "setting": "[1]", "value": "absent"},
      {"measurement": "Suppressive effect on excessive alcohol intake", "setting": "[1]", "value": "yes"},
      {"measurement": "Suppressive effect on stress-induced reinstatement", "setting": "[1]", "value": "none"},
      {"measurement": "Ameliorative effect on alcohol withdrawal symptoms", "setting": "[1]; listed as acamprosate", "value": "ineffective"},
      {"measurement": "Suppressive effect on excessive alcohol intake", "setting": "[1]; listed as acamprosate", "value": "effective"},
      {"measurement": "Suppressive effect on stress-induced reinstatement", "setting": "[1]; listed as acamprosate", "value": "ineffective"}
    ]},
    {"smiles": "Clc1cccc(Cl)c1N=C1NCCN1", "note": "[Clonidine]", "values": [
      {"measurement": "Ameliorative effect on alcohol withdrawal symptoms", "setting": "[1]", "value": "yes"},
      {"measurement": "Presence/absence of dependence", "setting": "[1]", "value": "absent"},
      {"measurement": "Suppressive effect on excessive alcohol intake", "setting": "[1]", "value": "none"},
      {"measurement": "Suppressive effect on stress-induced reinstatement", "setting": "[1]", "value": "none"},
      {"measurement": "Ameliorative effect on alcohol withdrawal symptoms", "setting": "[1]; listed as clonidine", "value": "effective"},
      {"measurement": "Suppressive effect on excessive alcohol intake", "setting": "[1]; listed as clonidine", "value": "ineffective"},
      {"measurement": "Suppressive effect on stress-induced reinstatement", "setting": "[1]; listed as clonidine", "value": "ineffective"}
    ]},
    {"smiles": "CNC(=O)Cn1c(=O)n(C2CCN([C@@H]3Cc4cccc5cccc3c45)CC2)c2ccccc21", "note": "[Compound A, (R)-2-{3-[1-(acenaphthen-1-yl)piperidin-4-yl]-2,3-dihydro-2-oxo-benzimidazol-1-yl}-N-methylacetamide]", "values": [
      {"measurement": "score of tail rigidity (alcohol withdrawal symptom)", "setting": "Wistar rats; [6]", "value": "significantly and dose-dependently decreased"},
      {"measurement": "score of tail tremors (alcohol withdrawal symptom)", "setting": "Wistar rats; [6]", "value": "significantly and dose-dependently decreased"},
      {"measurement": "score of ventromedial limb retraction (alcohol withdrawal symptom)", "setting": "Wistar rats; [6]", "value": "significantly and dose-dependently decreased"},
      {"measurement": "Ameliorative effect on alcohol withdrawal symptoms", "setting": "Wistar rats; Table 1 summary, Compound A", "value": "yes"},
      {"measurement": "ethanol consumption", "setting": "msP rats [2]; 0.3 and 1 mg/kg/body weight orally twice daily for 9 days, free choice water / 10% ethanol, FIG. 4", "value": "significantly and dose-dependently decreased"},
      {"measurement": "Suppressive effect on excessive alcohol intake", "setting": "msP rats [2]; Table 1 summary, Compound A", "value": "yes"},
      {"measurement": "duration of significant decrease of ethanol consumption after withdrawal of Compound A", "setting": "msP rats [2]; after 9 days of oral dosing at 0.3 and 1 mg/kg/body weight, FIG. 4", "value": 9, "unit": "days"},
      {"measurement": "yohimbine stress-induced reinstatement of alcohol-seeking behavior", "setting": "msP rats [3]; 1 mg/kg orally twice daily for six days, yohimbine 1,25 mg/kg i.p., FIG. 6", "value": "significantly attenuated"},
      {"measurement": "Suppressive effect on stress-induced reinstatement", "setting": "msP rats [3]; Table 1 summary, Compound A", "value": "yes"},
      {"measurement": "place preference (time spent in drug paired compartment)", "setting": "msP rats [4]; 0.3 and 1.0 mg/kg/body weight p.o., three pairings, FIG. 8", "value": "induced place preference at neither 0.3 nor 1 mg/kg/body weight"},
      {"measurement": "Presence/absence of dependence", "setting": "msP rats [4]; Table 1 summary, Compound A", "value": "absent"},
      {"measurement": "dependence elicitation by the compound itself", "setting": "msP rats [4]; conclusion from conditioned place preference at 0.3 and 1 mg/kg/body weight", "value": "does not elicit dependence"}
    ]},
    {"smiles": "CN1C(=O)CN=C(c2ccccc2)c2cc(Cl)ccc21", "note": "[Diazepam]", "values": [
      {"measurement": "Ameliorative effect on alcohol withdrawal symptoms", "setting": "[1]", "value": "yes"},
      {"measurement": "Presence/absence of dependence", "setting": "[1]", "value": "present"},
      {"measurement": "Suppressive effect on excessive alcohol intake", "setting": "[1]", "value": "none"},
      {"measurement": "Suppressive effect on stress-induced reinstatement", "setting": "[1]", "value": "none"},
      {"measurement": "Presence/absence of dependence", "setting": "[1]; listed as diazepam", "value": "induce dependence"}
    ]},
    {"smiles": "O=C1CC[C@@]2(O)[C@H]3Cc4ccc(O)c5c4[C@@]2(CCN3CC2CC2)[C@H]1O5", "note": "[Naltrexone]", "values": [
      {"measurement": "Ameliorative effect on alcohol withdrawal symptoms", "setting": "[1]", "value": "none"},
      {"measurement": "Presence/absence of dependence", "setting": "[1]", "value": "absent"},
      {"measurement": "Suppressive effect on excessive alcohol intake", "setting": "[1]", "value": "yes"},
      {"measurement": "Suppressive effect on stress-induced reinstatement", "setting": "[1]", "value": "none"},
      {"measurement": "Ameliorative effect on alcohol withdrawal symptoms", "setting": "[1]; listed as naltrexone", "value": "ineffective"},
      {"measurement": "Suppressive effect on excessive alcohol intake", "setting": "[1]; listed as naltrexone", "value": "effective"},
      {"measurement": "Suppressive effect on stress-induced reinstatement", "setting": "[1]; listed as naltrexone", "value": "ineffective"}
    ]},
    {"smiles": "O=C1NCN(c2ccccc2)C12CCN([C@@H]1CC[C@H]3CCCc4cccc1c43)CC2", "note": "[Ro64-6198]", "values": [
      {"measurement": "alcohol drinking", "setting": "[5]", "value": "failed to decrease alcohol drinking"},
      {"measurement": "alcohol drinking at high dose", "setting": "[5]; high dose", "value": "increase"}
    ]}
  ]
}
